Laboratory results published in the supplement of paper PMC5908809.

Columns and labels:
[1] = system: normal NK cells expanded with K562-aAPC; test: percent inhibition of viability; higher = more inhibition; conditions: 72 h, IL-2 2.5 ng/mL
Procedure: (§1)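 Drug sensitivity and resistance testing on K562-aAPC-expanded normal NK cells: 5 concentrations (10-fold steps over a 10,000-fold range), 72 h at 37 °C, viability by CellTiter-Glo normalised to DMSO and benzethonium chloride controls; DSS from the fitted curve.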

[2] = system: DERL-7 (IL-2 2.5 ng/mL); test: as above; conditions: 72 h
[3] = system: IMC-1 (IL-2 20 ng/mL); test: as above; conditions: 72 h
[4] = system: KAI3 (IL-2 2.5 ng/mL); test: as above; conditions: 72 h
[5] = system: KHYG-1 (IL-2 2.5 ng/mL); test: as above; conditions: 72 h
[6] = system: NK-92 (IL-2 2.5 ng/mL); test: as above; conditions: 72 h
[7] = system: NK-YS (IL-2 2.5 ng/mL); test: as above; conditions: 72 h
[8] = system: NKL (IL-2 2.5 ng/mL); test: as above; conditions: 72 h
[9] = system: SNK-6 (IL-2 2.5 ng/mL); test: as above; conditions: 72 h
[10] = system: YT (IL-2 2.5 ng/mL); test: as above; conditions: 72 h
[11] = system: normal primary NK cells, pool 1 (3 donors) (IL-2 2.5 ng/mL); test: as above; conditions: 72 h
[12] = system: normal primary NK cells, pool 1 (3 donors), resting (IL-2 0 ng/mL); test: as above; conditions: 72 h
[13] = system: normal primary NK cells, pool 2 (3 donors) (IL-2 2.5 ng/mL); test: as above; conditions: 72 h
[14] = system: normal primary NK cells, pool 3 (3 donors) (IL-2 2.5 ng/mL); test: as above; conditions: 72 h
[15] = system: normal NK cells expanded with K562-aAPC; test: drug sensitivity score (DSS) (DSS units); higher = more sensitive; extreme values may be limits of the assay; conditions: 72 h; IL-2 2.5 ng/mL
Procedure: as §1

[16] = system: DERL-7 (IL-2 2.5 ng/mL); test: as above; conditions: 72 h
[17] = system: IMC-1 (IL-2 20 ng/mL); test: as above; conditions: 72 h
[18] = system: KAI3 (IL-2 2.5 ng/mL); test: as above; conditions: 72 h
[19] = system: KHYG-1 (IL-2 2.5 ng/mL); test: as above; conditions: 72 h
[20] = system: NK-92 (IL-2 2.5 ng/mL); test: as above; conditions: 72 h
[21] = system: NK-YS (IL-2 2.5 ng/mL); test: as above; conditions: 72 h
[22] = system: NKL (IL-2 2.5 ng/mL); test: as above; conditions: 72 h
[23] = system: SNK-6 (IL-2 2.5 ng/mL); test: as above; conditions: 72 h
[24] = system: YT (IL-2 2.5 ng/mL); test: as above; conditions: 72 h
[25] = system: normal primary NK cells, pool 1 (3 donors) (IL-2 2.5 ng/mL); test: as above; conditions: 72 h
[26] = system: normal primary NK cells, pool 1 (3 donors), resting (IL-2 0 ng/mL); test: as above; conditions: 72 h
[27] = system: normal primary NK cells, pool 2 (3 donors) (IL-2 2.5 ng/mL); test: as above; conditions: 72 h
[28] = system: normal primary NK cells, pool 3 (3 donors) (IL-2 2.5 ng/mL); test: as above; conditions: 72 h

CS(=O)(=O)OCCCCOS(C)(=O)=O [Busulfan] (max concentration tested 100000 nM)
percent inhibition of viability [%]
Conditions | 10 nM | 100 nM | 1000 nM | 10000 nM | 100000 nM
[1] | -2.86 | 1.34 | 1.8 | 12.1 | 11.6
[2] | -0.3 | 0.71 | -1.86 | -6.29 | 37.3
[3] | -7.58 | 1.98 | -0.95 | 5.86 | 97.7
[4] | -3.8 | 4.61 | -6.45 | 7.92 | 92.1
[5] | -5.97 | 2.86 | -2.89 | 5.78 | 101
[6] | -12.9 | 1.55 | 8.88 | -9.97 | 98.6
[7] | -7.3 | -2.96 | -5.68 | 2.67 | 93.2
[8] | -14.8 | -1.78 | -0.6 | 5.56 | 99.4
[9] | 6.87 | 18.8 | 18.7 | 29.4 | 98
[10] | -5.22 | 1.87 | -2.46 | -4.04 | 47.7
[11] | 0.77 | -7.48 | -4.93 | -16 | -3.43
[12] | 9.92 | -5.43 | 4.09 | -28.6 | -11.5
[13] | -6.89 | -5.87 | 7.32 | -4.08 | 50.9
[14] | 0.71 | -2.78 | 10.5 | -3.81 | 35.4

Conditions | drug sensitivity score
[15] | 0.67
[16] | 1.44
[17] | 6.28
[18] | 6.36
[19] | 6.48
[20] | 4.82
[21] | 5.53
[22] | 6.32
[23] | 8.82
[24] | 2.18
[25] | 0
[26] | 0
[27] | 2.38
[28] | 1.42

CO[C@H]1C[C@@H]2CC[C@@H](C)[C@@](O)(O2)C(=O)C(=O)N2CCCC[C@H]2C(=O)O[C@H]([C@H](C)C[C@@H]2CC[C@@H](OP(C)(C)=O)[C@H](OC)C2)CC(=O)[C@H](C)/C=C(\C)[C@@H](O)[C@@H](OC)C(=O)[C@H](C)C[C@H](C)/C=C/C=C/C=C/1C [Ridaforolimus] (max concentration tested 100 nM)
percent inhibition of viability [%]
Conditions | 0.01 nM | 0.1 nM | 1 nM | 10 nM | 100 nM
[1] | -10 | -8.61 | -0.94 | 10.6 | 16.8
[2] | -15.4 | 2.83 | 28.9 | 51.2 | 57.3
[3] | -3.33 | -2.56 | -12.9 | -45.3 | -38.3
[4] | -4.12 | -7.54 | 27.9 | 44 | 48.8
[5] | -5.83 | -9.85 | 0.66 | 26.3 | 51.1
[6] | -28.6 | -5.36 | -5.98 | 12.4 | 39
[7] | -0.81 | 5.33 | 44.5 | 49.8 | 54.8
[8] | -1.33 | 21.2 | 50.1 | 55 | 58.3
[9] | -5.16 | -2.57 | 46.2 | 46 | 55
[10] | -4.71 | -6.15 | 16.4 | 48.4 | 45.6
[11] | -8.79 | 8.41 | 13.3 | 20.3 | 11.8
[12] | -5.23 | 14.6 | 24.1 | 30.7 | 28.2
[13] | -12.7 | 6.23 | 9.36 | 16.1 | 19.1
[14] | -5.53 | 6.52 | 5.98 | 8.12 | 11

Conditions | drug sensitivity score
[15] | 1.24
[16] | 13.3
[17] | 0
[18] | 12.4
[19] | 5.97
[20] | 3.73
[21] | 16
[22] | 19.2
[23] | 15.6
[24] | 11.2
[25] | 3.96
[26] | 9.48
[27] | 2.58
[28] | 0.06

Cn1cnc2c(F)c(Nc3ccc(Br)cc3F)c(C(=O)NOCCO)cc21 [Binimetinib] (max concentration tested 1000 nM)
percent inhibition of viability [%]
Conditions | 0.1 nM | 1 nM | 10 nM | 100 nM | 1000 nM
[1] | 1.57 | -5.49 | -0.07 | 6.65 | 16.2
[2] | 1.19 | 7.3 | 10.5 | 16.3 | 33.7
[3] | -6 | -0.56 | -0.39 | 4.96 | 6.74
[4] | -1.37 | 4.03 | 7.85 | 24.3 | 29.6
[5] | -8.34 | -1.29 | 0.25 | 24.1 | 42.7
[6] | -10.1 | -5.18 | -13.1 | 0.36 | -1.28
[7] | -5.25 | -2.09 | -0.43 | 5.51 | 15.3
[8] | -7.91 | -8.09 | 19.3 | 43.6 | 53.2
[9] | -19.8 | -4.3 | -10.5 | -10.4 | -8.36
[10] | -6.43 | -3.81 | -0.11 | 2.57 | 13.4
[11] | -6.5 | 12.6 | 14.8 | 18.1 | 22.7
[12] | -4.5 | 21.4 | 12.5 | 9.21 | 17.1
[13] | -7.84 | -6.09 | 8.89 | -1.5 | 11
[14] | -5.24 | 2.75 | -0.18 | 2.58 | 2.52

Conditions | drug sensitivity score
[15] | 0.91
[16] | 3.71
[17] | 0
[18] | 4.5
[19] | 5.14
[20] | 0
[21] | 0.72
[22] | 10.4
[23] | 0
[24] | 0.31
[25] | 4.75
[26] | 1.99
[27] | 0
[28] | 0
